Mass density data for 4 compounds are collected here from the NIST ThermoML archive (doi:10.1016/j.fluid.2014.12.027).

Numbers after ± are expanded uncertainties.

As a reminder, the mass density is mass per unit of volume.

The conditions of this series: 298 K; 101.33 kPa; Liquid; Vibrating tube method.
Consider `CCCCCCCCCC` [decane], for which the mass density came to 722.439 ± 0.28 kg/m3.

As for `OCCOCCO` [diethylene glycol], the mass density turned out to be 1109.16 ± 0.34 kg/m3.

As for `Cc1ccccc1` [toluene], the mass density was found to be 857.606 ± 0.19 kg/m3.

On to `OCCOCCOCCO` [triethylene glycol], for which the mass density is reported as 1116.05 ± 0.34 kg/m3.
